Test: solubility of the quarternary ammonium salt in solvents
Type: physicochemical
Description: Preparation of Phenyl bis[4-NNN-trimethyl-ammonium-iodide-phenylamido]Phosphate, also designated phosphoric-acid-phenyl-ester-bis[4-NNN-trimethyl-ammonium-iodide-phenyl-amide] [drawing 25] The diamine V (Example 1) is dissolved in a mixture of 4:1 acetone:0.5MNaHCO3, and reacted overnight with excess Mel, methyliodide, at room temperature. The reaction mixture is then evaporated, dissolved in water and washed with ethyl acetate to remove impurities. The aqueous phase is then evaporated to dryness and the residue is washed several times with acetone to remove Sodiumiodide obtained as a by-product. The compound obtained is highly hygroscopic. The quarternary ammonium salt is very soluble in water but not in ethanol or acetone. It gives a negative reaction with TNBS.

## C[N+](C)(C)c1ccc(NP(=O)(Nc2ccc([N+](C)(C)C)cc2)Oc2ccccc2)cc1 [Example 3, Phenyl bis[4-NNN-trimethyl-ammonium-iodide-phenylamido]Phosphate]
Ethanol or acetone
  solubility in ethanol or acetone: not
water
  solubility in water: very soluble

Reference: patent US4948908A, “Organo phosphorus compounds and pesticidal compositions” (priority 1986, dated 1990)
